Biological target: T1, macrophage migration inhibitory factor-1 (MIF-1) (Homo sapiens, UniProt P14174)
T1 sequence (P14174 2-115): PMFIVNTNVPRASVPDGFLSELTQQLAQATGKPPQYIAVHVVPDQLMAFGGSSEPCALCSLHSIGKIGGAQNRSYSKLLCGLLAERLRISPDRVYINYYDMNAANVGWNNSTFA
Assay: HPP tautomerase inhibition kinetics with purified protein
Type: biochemical

O=C(O)c1cccc(-c2cc(C(=O)O)ncc2C(=O)O)c1 [4-CPPC, 4-(3-Carboxyphenyl)-2,5pyridinedicarboxylic acid]
Ki: 431 ± 37 µM

From paper PMC6123015 (Biochemistry, 2018)
